Laboratory results reported in patent US20260317320A1, “C5AR1 ANTAGONISTS AND USES THEREOF” (Vanqua Bio, Inc., priority 2022, published 2026).
Read-outs that look alike come from different tables or passages of the source.

Experiments:
[1] = target: T1, complement C5a receptor 1 (C5aR1) (Homo sapiens, UniProt P21730); test: β-arrestin recruitment via C5aR1 activation in live CHO-K1 cells (PathHunter), antagonist mode; assay type: cell-based; settings: antagonist mode; recombinant hC5a (EC90) as competing natural agonist; live CHO-K1 cells; read-out: [Antagonist] B-arrestin2 recruitment: Average IC50
T1 construct: β-galactosidase fragment (PathHunter enzyme complementation); host or cells: CHO-K1 (PathHunter CHO-K1 C5aR1 β-arrestin cell line)
T1 sequence (P21730 1-350): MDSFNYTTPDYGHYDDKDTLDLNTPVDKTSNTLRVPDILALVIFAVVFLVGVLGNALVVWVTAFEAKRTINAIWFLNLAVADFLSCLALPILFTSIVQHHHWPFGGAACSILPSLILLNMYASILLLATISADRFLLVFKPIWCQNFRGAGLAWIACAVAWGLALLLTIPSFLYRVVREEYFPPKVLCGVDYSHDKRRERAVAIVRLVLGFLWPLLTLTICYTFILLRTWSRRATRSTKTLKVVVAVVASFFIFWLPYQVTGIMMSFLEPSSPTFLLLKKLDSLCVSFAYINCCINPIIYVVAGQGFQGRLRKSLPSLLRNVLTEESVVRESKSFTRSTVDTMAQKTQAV
Outline: (§1)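 Live CHO-K1 cells carry two galactosidase enzyme fragments, one fused to β-arrestin and one to C5aR1, so that β-arrestin recruitment restores enzyme activity. Agonist mode tests compounds alone. Antagonist mode tests them against recombinant hC5a at EC90, and IC50 values are reported in binned ranges.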

[2] = target: T1, complement C5a receptor 1 (C5aR1); test: β-arrestin recruitment via C5aR1 activation in live CHO-K1 cells (PathHunter), agonist mode; assay type: cell-based
Outline: as §1

SMILES	IC50 [1] [µM]	[Agonist] B-arrestin2 recruitment: Average EC50 (nM) [2]	[Agonist] B-arrestin2 recruitment: Average EC50 (nM) ([2]; at 10 μM)
Cc1cnc2cc([C@H]3CC[C@H](c4c(F)cnc5c4cnn5C)CC3)c(=O)n(Cc3ncccc3C(F)(F)F)c2n1 [compound 266, 3-Methyl-7-[(1r,4r)-4-(5-fluoro-1-methyl-1H-1,2,7-triazainden-4-yl)cyclohexyl]-5-{[3-(trifluoromethyl)-2-pyridyl]methyl}-1,4,5-triaza-6(5H)-naphthalenone]	5 to 100	Non-Active	
Cc1cccc(F)c1[C@H]1CC[C@H](c2cc3nc(CC(F)(F)F)cnc3n(Cc3ncccc3C(F)(F)F)c2=O)CC1 [compound 228, 7-((1r,4r)-4-(2-Fluoro-6-methylphenyl)cyclohexyl)-2-(2,2,2-trifluoroethyl)-5-((3-(trifluoromethyl)pyridin-2-yl)methyl)pyrido[2,3-b]pyrazin-6(5H)-one]	< 0.5		Non-Active at 10 μM
Cc1cccc(F)c1N1CCC(c2cc3cncnc3n(Cc3nccnc3C(F)(F)F)c2=O)CC1 [compound 28, 6-(1-(2-fluoro-6-methylphenyl)piperidin-4-yl)-8-((3-(trifluoromethyl)pyrazin-2-yl)methyl)pyrido[2,3-d]pyrimidin-7(8H)-one]	5 to 100	Non-Active	
Cc1cccc(F)c1N1CCC(c2cc3nccnc3n(Cc3nccnc3C(F)(F)F)c2=O)C1 (stereo not shown) [compound 23, 7-(1-(2-Fluoro-6-methylphenyl)pyrrolidin-3-yl)-5-((3-(trifluoromethyl)pyrazin-2-yl)methyl) pyrido[2,3-b]pyrazin-6(5H)-one]	0.5 to 5	Non-Active	
Cc1ccc2cc([C@H]3CC[C@H](c4c(C)cccc4F)CC3)c(=O)n(Cc3ncccc3OC(F)F)c2n1 [compound 195, 1-((3-(Difluoromethoxy)pyridin-2-yl)methyl)-3-((1r,4r)-4-(2-fluoro-6-methylphenyl)cyclohexyl)-7-methyl-1,8-naphthyridin-2(1H)-one]	< 0.5	Non-Active	
Cc1cnc2c(C)c(N3CCN(c4c(C)cccc4F)CC3)c(=O)n(Cc3ncccc3C(F)(F)F)c2n1 [compound 118, 7-(4-(2-fluoro-6-methylphenyl)piperazin-1-yl)-3,8-dimethyl-5-((3-(trifluoromethyl)pyridin-2-yl)methyl)pyrido[2,3-b]pyrazin-6(5H)-one]	0.5 to 5	Non-Active	
O=c1c(C2CCN(c3cccnc3C(F)(F)F)CC2)cc2nccnc2n1Cc1ccccc1F [compound 18, 5-(2-Fluorobenzyl)-7-(1-(2-(trifluoromethyl)pyridin-3-yl)piperidin-4-yl)pyrido[2,3-b]pyrazin-6(5H)-one]	> 100	Non-Active	
Cc1cccc(F)c1N1CCC(c2cc3nccnc3n(Cc3nccnc3OCC(F)(F)F)c2=O)CC1 [compound 6, 7-(1-(2-Fluoro-6-methylphenyl)piperidin-4-yl)-5-((3-(2,2,2-trifluoroethoxy)pyrazin-2-yl)methyl)pyrido[2,3-b]pyrazin-6(5H)-one]	< 0.5	Non-Active	
Cc1cccc(F)c1N1CCC(c2cc3nccnc3n([C@H]3CCCc4ncccc43)c2=O)CC1 [49b, (S)-7-(1-(2-Fluoro-6-methylphenyl)piperidin-4-yl)-5-(5,6,7,8-tetrahydroquinolin-5-yl)pyrido[2,3-b]pyrazin-6(5H)-one]	0.5 to 5	Non-Active	
Cc1c(N2CCC(c3cc4nccnc4n(Cc4ccccc4C(F)(F)F)c3=O)CC2)ccnc1F [compound 29, 7-(1-(2-Fluoro-3-methylpyridin-4-yl)piperidin-4-yl)-5-(2-(trifluoromethyl)benzyl)pyrido-[2,3-b]pyrazin-6(5H)-one]	5 to 100	Non-Active	
Cc1cnc2cc([C@H]3CC[C@H](c4c(F)cccc4F)CC3)c(=O)n(Cc3ncccc3CC(F)(F)F)c2n1 [compound 236, 7-((1r,4r)-4-(2,6-Difluorophenyl)cyclohexyl)-3-methyl-5-((3-(2,2,2-trifluoroethyl)pyridin-2-yl)methyl)pyrido[2,3-b]pyrazin-6(5H)-one]	< 0.5		Non-Active at 10 μM
Cc1cnc2cc(C3CCN(c4ncccc4C(F)F)CC3)c(=O)n(Cc3ncccc3C(F)(F)F)c2n1 [compound 154, 7-(1-(3-(Difluoromethyl)pyridin-2-yl)piperidin-4-yl)-3-methyl-5-((3-(trifluoromethyl)pyridin-2-yl)methyl)pyrido[2,3-b]pyrazin-6(5H)-one]	< 0.5		Non-Active at 10 μM
Cc1cnc2cc([C@H]3CC[C@H](c4c(F)cccc4F)CC3)c(=O)n(Cc3ncccc3C(F)(F)F)c2n1 [compound 222, 7-((1r,4r)-4-(2,6-Difluorophenyl)cyclohexyl)-3-methyl-5-((3-(trifluoromethyl)pyridin-2-yl)methyl)pyrido[2,3-b]pyrazin-6(5H)-one]	< 0.5		Non-Active at 10 μM
Cc1cnc2cc([C@H]3CC[C@H](c4cnsc4C)CC3)c(=O)n(Cc3nccnc3C(F)(F)F)c2n1 [compound 242, 3-Methyl-7-((1r,4r)-4-(5-methylisothiazol-4-yl)cyclohexyl)-5-((3-(trifluoromethyl)pyrazin-2-yl)methyl)pyrido[2,3-b]pyrazin-6(5H)-one]	< 0.5	Non-Active	
O=c1c(C2CCN(c3cnccc3Cl)CC2)cc2nccnc2n1Cc1ncccc1C(F)(F)F [compound 71, 7-(1-(4-Chloropyridin-3-yl)piperidin-4-yl)-5-((3-(trifluoromethyl)pyridin-2-yl)methyl)-pyrido[2,3-b]pyrazin-6(5H)-one]	0.5 to 5	Non-Active	
Cc1ccc2cc([C@H]3CC[C@H](c4c(C)cccc4F)CC3)c(=O)n(Cc3nccnc3C(F)F)c2n1 [compound 210, 1-((3-(Difluoromethyl)pyrazin-2-yl)methyl)-3-((1r,4r)-4-(2-fluoro-6-methylphenyl)cyclohexyl)-7-methyl-1,8-naphthyridin-2(1H)-one]	< 0.5		Non-Active at 10 μM
Cc1cnc2cc([C@H]3CC[C@H](c4ncsc4C)CC3)c(=O)n(Cc3ncccc3C(F)(F)F)c2n1 [compound 163, 3-Methyl-7-((1r,4r)-4-(5-methylthiazol-4-yl)cyclohexyl)-5-((3-(trifluoromethyl)pyridin-2-yl)methyl)pyrido[2,3-b]pyrazin-6(5H)-one]	0.5 to 5		Non-Active at 10 μM

The next lines start with the values.

IC50 [1] [µM]	[Agonist] B-arrestin2 recruitment: Average EC50 (nM) [2]	[Agonist] B-arrestin2 recruitment: Average EC50 (nM) ([2]; at 10 μM)	SMILES
5 to 100		Non-Active at 10 μM	Cc1cnc2cc([C@@H]3CC[C@H](c4c(C)cccc4F)C3)c(=O)n(Cc3nccnc3C(F)(F)F)c2n1 [197C, 7-((1R,3S)-3-(2-Fluoro-6-methylphenyl)cyclopentyl)-3-methyl-5-((3-(trifluoromethyl)pyrazin-2-yl)methyl)pyrido[2,3-b]pyrazin-6(5H)-one]
< 0.5		Non-Active at 10 μM	Cc1cnc2cc([C@H]3CC[C@H](c4c(C)cccc4F)C3)c(=O)n(Cc3nccnc3C)c2n1 [172C, 7-((1S,3S)-3-(2-Fluoro-6-methylphenyl)cyclopentyl)-3-methyl-5-((3-methylpyrazin-2-yl)methyl)pyrido[2,3-b]pyrazin-6(5H)-one]
0.5 to 5	Non-Active		Cc1cccc(F)c1N1CCC(c2cc3nccnc3n([C@H]3CCCc4ccccc43)c2=O)CC1 [53b, (S)-7-(1-(2-Fluoro-6-methylphenyl)piperidin-4-yl)-5-(1,2,3,4-tetrahydronaphthalen-1-yl)pyrido[2,3-b]pyrazin-6(5H)-one]
0.5 to 5		Non-Active at 10 μM	Cc1cnc2cc([C@H]3CC[C@H](c4c(C)ccnc4F)CC3)c(=O)n(Cc3nccnc3C(F)F)c2n1 [146B, 5-((3-(Difluoromethyl)pyrazin-2-yl)methyl)-7-((1r,4r)-4-(2-fluoro-4-methylpyridin-3-yl)cyclohexyl)-3-methylpyrido[2,3-b]pyrazin-6(5H)-one]
0.5 to 5		Non-Active at 10 μM	Cc1cnc2cc([C@@H]3CC[C@@H](c4c(C)cccc4F)C3)c(=O)n(Cc3ncccc3OC(F)F)c2n1 [175D, 5-((3-(Difluoromethoxy)pyridin-2-yl)methyl)-7-((1R,3R)-3-(2-fluoro-6-methylphenyl)cyclopentyl)-3-methylpyrido[2,3-b]pyrazin-6(5H)-one]
0.5 to 5		Non-Active at 10 μM	Cc1cccc(F)c1[C@H]1CC[C@@H](c2cc3nccnc3n(Cc3ncccc3C(F)(F)F)c2=O)C1 [200C, 7-((1R,3S)-3-(2-Fluoro-6-methylphenyl)cyclopentyl)-5-((3-(trifluoromethyl)pyridin-2-yl)methyl)pyrido[2,3-b]pyrazin-6(5H)-one]
